In one experiment the target is T1, CDK9/CycT1 (Homo sapiens, UniProt P50750).
T1 construct: Recombinant full-length His-tagged human CDK9 and CycT1; His; purchased Invitrogen PV4131; host or cells: insect cells
The experiment in a line: CDK9/CycT1 kinase assay (TR-FRET). The format is biochemical. The settings on record: ATP 10 μM. From the text: CDK9/CycT1-inhibitory activity of compounds of the present invention was quantified employing the CDK9/CycT1 TR-FRET assay as described in the following paragraphs.
Recombinant full-length His-tagged human CDK9 and CycT1, expressed in insect cells and purified by Ni-NTA affinity chromatography, were purchased from Invitrogen (catalogue number PV4131). A biotinylated peptide biotin-Ttds-[…] (C-terminus in amide form), which can be purchased from e.g the company JERINI Peptide Technologies (Berlin, Germany), was used as a substrate for the kinase reaction.
(§1) For the assay, 50 nl of a 100-fold concentrated solution of the test compound in DMSO was pipetted into a well of a black low-volume 384-well microtiter plate (Greiner Bio-One, Frickenhausen, Germany), 2 μl of a solution of CDK9/CycT1 in aqueous assay buffer [50 mM Tris/HCl pH 8.0], 10 mM MgCl2, 1.0 mM dithiothreitol, 0.1 mM sodium ortho-vanadate, 0.01% (v/v) Nonidet-P40 (Sigma)] were added. The mixture was incubated at 22° C. for 15 min to allow pre-binding of the test compounds to the enzyme before the start of the kinase reaction. […] The resulting mixture was incubated at 22° C. for a reaction time of 25 minutes. The concentration of CDK9/CycT1 was adjusted depending of the activity of the enzyme lot and was chosen appropriately for measurements in the linear range of the assay. Typical concentrations were in the range of 1 μg/ml. The reaction was stopped by the addition of 5 μl of a solution of TR-FRET detection reagents (0.2 μM streptavidine-XL and 1 nM anti-RB(pSer807/pSer811)-antibody from BD Pharmingen [#558389] and 1.2 nM LANCE EU-W1024 labeled anti-mouse IgG antibody [Perkin-Elmer, product no. AD0077]) in an aqueous EDTA-solution (100 mM EDTA, 0.2% (w/v) bovine serum albumin in 100 mM HEPES/NaOH, pH 7.0).
(§2) The resulting mixture was incubated at 22° C. for one hour to allow the formation of a complex between the phosphorylated biotinylated peptide and the detection reagents. Subsequently, the amount of phosphorylated substrate was evaluated by measurement of the resonance energy transfer from the Eu-chelate to the streptavidine-XL. Therefore, the fluorescence emissions at 620 nm and 665 nm after excitation at 350 nm were measured in a HTRF reader, e.g. a Rubystar (BMG Labtechnologies, Offenburg, Germany) or a Viewlux (Perkin-Elmer). The ratio of the emissions at 665 nm and at […] was taken as a measure for the amounts of phosphorylated substrate. The data were normalised, i.e. enzyme reaction without inhibitor corresponds to 0% inhibition, and all other assay components in the absence of the enzyme correspond to 100% inhibition. IC50 values were calculated by a 4-parameter fit using in-house software.
(In general: Time-resolved FRET reads energy transfer from a long-lived donor to a nearby acceptor.)

Another experiment has as its target T2, CDK2/CycE (Homo sapiens, UniProt P24941).
T2 construct: GST; purchased ProQinase GmbH (Freiburg, Germany); host or cells: insect cells (Sf-9)
The experiment in a line: CDK2/CycE kinase assay (TR-FRET). The format is biochemical. The settings on record: ATP 10 μM.
Text: CDK2/CycE-inhibitory activity of compounds of the present invention was quantified employing the CDK2/CycE TR-FRET assay as described in the following paragraphs.
Recombinant fusion proteins of glutathione S-transferase (GST) and human CDK2 and of GST and human CycE, expressed in insect cells (Sf-9) and purified by glutathion-sepharose affinity chromatography, were purchased from ProQinase GmbH (Freiburg, Germany). A biotinylated peptide biotin-Ttds-[…] (C-terminus in amide form), which can be purchased from e.g the company JERINI Peptide Technologies (Berlin, Germany), was used as a substrate for the kinase reaction.
as §1, with “of CDK2/CycE” for “of CDK9/CycT1”, “for” for “for a reaction time of”, “depending on” for “depending of”, “of 130 ng/ml.” for “of 1 μg/ml.”
as §2, with “measuring” for “measurement of”, “high time-resolved fluorometry (HTRF)” for “HTRF”

Molecules are shown by their SMILES. Counter-ions that a name gives are not always drawn.

T1 sequence (P50750 whole entry): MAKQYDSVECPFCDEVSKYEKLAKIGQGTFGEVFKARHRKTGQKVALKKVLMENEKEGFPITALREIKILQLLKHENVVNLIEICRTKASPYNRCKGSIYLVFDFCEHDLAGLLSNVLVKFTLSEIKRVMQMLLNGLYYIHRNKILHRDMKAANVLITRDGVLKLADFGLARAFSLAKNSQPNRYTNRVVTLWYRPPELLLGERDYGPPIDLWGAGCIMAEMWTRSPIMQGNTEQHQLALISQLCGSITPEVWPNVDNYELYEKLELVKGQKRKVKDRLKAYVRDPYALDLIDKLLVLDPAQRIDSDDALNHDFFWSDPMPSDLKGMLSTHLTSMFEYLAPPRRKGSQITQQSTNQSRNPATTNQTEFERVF
T1 sequence (O60563 whole entry partner): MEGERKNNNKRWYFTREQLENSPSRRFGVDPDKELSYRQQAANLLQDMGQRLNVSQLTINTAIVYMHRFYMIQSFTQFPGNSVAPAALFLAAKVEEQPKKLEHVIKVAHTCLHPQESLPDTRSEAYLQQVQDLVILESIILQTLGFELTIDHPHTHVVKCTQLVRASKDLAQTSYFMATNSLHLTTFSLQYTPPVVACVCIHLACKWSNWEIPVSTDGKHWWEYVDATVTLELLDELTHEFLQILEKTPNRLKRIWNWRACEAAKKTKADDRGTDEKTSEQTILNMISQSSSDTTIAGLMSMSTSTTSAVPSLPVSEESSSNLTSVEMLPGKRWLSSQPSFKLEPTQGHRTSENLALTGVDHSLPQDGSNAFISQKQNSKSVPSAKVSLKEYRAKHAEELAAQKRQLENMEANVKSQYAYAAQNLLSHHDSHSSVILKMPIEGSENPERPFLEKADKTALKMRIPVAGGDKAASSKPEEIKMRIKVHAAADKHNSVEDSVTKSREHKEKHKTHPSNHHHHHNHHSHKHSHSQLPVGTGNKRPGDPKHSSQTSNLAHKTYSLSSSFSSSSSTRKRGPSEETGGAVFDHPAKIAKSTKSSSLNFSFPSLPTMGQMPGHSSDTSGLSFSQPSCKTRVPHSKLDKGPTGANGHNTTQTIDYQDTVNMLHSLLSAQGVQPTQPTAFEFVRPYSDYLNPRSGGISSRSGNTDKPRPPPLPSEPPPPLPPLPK

Broadly, the IC50 is the concentration that gives 50% inhibition. Low readings indicate greater potency, high ones weaker potency. With `COc1cc(F)ccc1-c1ncnc(Nc2cccc(CS(N)(=O)=O)c2)n1` [B2′, 1-(3-{[4-(4-fluoro-2-methoxyphenyl)-1,3,5-triazin-2-yl]amino}phenyl)methanesulfonamide hydrochloride], the figures for the IC50 against CDK9/CycT1 (values in nM) and on CDK2/CycE (values in nM) were 14 nM and 670 nM, respectively.

`COc1ccccc1-c1ncnc(Nc2cccc(CS(N)(=O)=O)c2)n1` [Compound B1, 3-[(4-(2-Methoxyphenyl)-1,3,5-triazin-2-yl)amino]benzenemethanesulfonamide]: the IC50 at CDK9/CycT1 (values in nM) worked out at 21 nM; against CDK2/CycE (values given in μM), 1800 nM.

In the case of `COc1cc(F)ccc1-c1ncnc(Nc2cccc(CS(N)(=O)=O)c2)n1` [Compound B2, 3-[(4-(4-Fluoro-2-methoxyphenyl)-1,3,5-triazin-2-yl)amino]benzenemethanesulfonamide], the IC50 against CDK9/CycT1 (values in nM) amounted to 8.1 nM; on CDK2/CycE (values in nM) it was 930 nM.

`NS(=O)(=O)Cc1cccc(Nc2ncnc(-c3ccccc3OCc3ccccc3)n2)c1` [Compound B13, 3-[(4-(2-Benzyloxyphenyl)-1,3,5-triazin-2-yl)amino]benzenemethanesulfonamide]: the IC50 came out at 3.2 nM at CDK9/CycT1 (values in nM) and 380 nM on CDK2/CycE (values in nM).

`NS(=O)(=O)Cc1cccc(Nc2ncnc(-c3ccccc3Oc3ccccc3)n2)c1` [Compound B14, 1-(3-{[4-(2-phenoxyphenyl)-1,3,5-triazin-2-yl]amino}phenyl)methanesulfonamide]: the IC50 worked out at 62 nM against CDK9/CycT1 (values in nM) and 4000 nM on CDK2/CycE (values given in μM).

On to `CC(C)Oc1cc(F)ccc1-c1ncnc(Nc2cccc(CS(N)(=O)=O)c2)n1` [Compound U2, 1-[3-({4-[4-fluoro-2-(propan-2-yloxy)phenyl]-1,3,5-triazin-2-yl}amino)phenyl]methanesulfonamide], for which the IC50 against CDK9/CycT1 (values in nM) was 28 nM; on CDK2/CycE (values in nM) it was 880 nM.

With `N#Cc1cc(F)ccc1-c1ncnc(Nc2cccc(CS(N)(=O)=O)c2)n1` [Compound U3, 1-(3-{[4-(2-cyano-4-fluorophenyl)-1,3,5-triazin-2-yl]amino}phenyl)methanesulfonamide], the IC50 against CDK9/CycT1 (values given in μM) stood at 3300 nM; against CDK2/CycE (values given in μM) it was 14000 nM.

In the case of `COc1cc(F)c(F)cc1-c1ncnc(Nc2cccc(CS(N)(=O)=O)c2)n1` [Compound U7, 1-(3-{[4-(4,5-difluoro-2-methoxyphenyl)-1,3,5-triazin-2-yl]amino}phenyl)methanesulfonamide], the IC50 against CDK9/CycT1 (values in nM) came to 14 nM; against CDK2/CycE (values in nM), 930 nM.

For `COc1cc(F)ccc1-c1ncnc(Nc2ccc(S(C)(=O)=O)nc2)n1` [Compound U8, 4-(4-fluoro-2-methoxyphenyl)-N-[6-(methylsulfonyl)pyridin-3-yl]-1,3,5-triazin-2-amine], the IC50 against CDK9/CycT1 (values in nM) was 320 nM; at CDK2/CycE (values in nM), 170 nM.

As to `CNS(=O)(=O)Cc1cccc(Nc2cc(-c3ccccc3OC)ncn2)c1` [Ref2, C-{3-[6-(2-Methoxy-phenyl)-pyrimidin-4-ylamino]-phenyl}-N-methyl methanesulfonamide, reference compound], the IC50 against CDK9/CycT1 (values in nM) turned out to be 40 nM; against CDK2/CycE (values given in μM) it was 1600 nM.

Regarding `COc1ccccc1-c1cc(Nc2cccc(CS(=O)(=O)N(C)C)c2)ncn1` [Ref4, C-{3-[6-(2-Methoxy-phenyl)-pyrimidin-4-ylamino]-phenyl}-N,N-dimethylmethanesulfonamide, reference compound], the IC50 against CDK9/CycT1 (values in nM) is 49 nM; on CDK2/CycE (values given in μM), 2700 nM.
